We go through two molecules from patent US9738684B2, “N-terminally modified linear and branched polyamine conjugated peptidomimetics as antimicrobials agents” (COUNCIL OF SCIENTIFIC & INDUSTRIAL RESEARCH, priority 2015, dated 2017).

Data set [1] concerns Acinetobacter baumannii (ATCC 19606). In words: MIC, serial broth dilution. The note with it: MHB, 18 h, 37° C. Type of data set: cell-based. A general note: Dilution methods test growth across graded concentrations, often in twofold steps.
The subject of data set [2] is Enterococcus faecalis (ATCC 7080). As to the kind of experiment: MIC, serial broth dilution. It counts as cell-based. The note with it: MHB, 18 h, 37° C.
In data set [3] the test system is Staphylococcus epidermidis (ATCC 12228). In words: MIC, serial broth dilution. Type of data set: cell-based. The note with it: MHB, 18 h, 37° C.
In data set [4] the test system is methicillin resistant Staphylococcus epidermidis (ATCC 51625). As to the kind of experiment: MIC, serial broth dilution. Type of data set: cell-based. As to conditions: MHB, 18 h, 37° C.
For data set [5], the system named is Escherichia coli (ATCC 11775). As to the kind of experiment: MIC, serial broth dilution. Type of data set: cell-based. On the set-up: MIC E. coli. (ATCC 11775): unit not given here. As to conditions: MHB, 18 h, 37° C.
In data set [6] the test system is peripheral blood mononuclear cells (PBMCs). As to the kind of experiment: LDH release cytotoxicity assay. It counts as cell-based, human. As to conditions: 20 μg/mL, 24 h. The method, then: For the experiment a protocol as used previously was employed with minor modifications [J. Immunol. Methods, 115:61-69, 1988; Chem. Biol. 20:1286-1295, 2013.]. Briefly, blood was collected from healthy human donors in sodium heparin anticoagulant tubes in accordance with institutional guidelines. The blood was diluted 1:1 with NaCl/Pi (35 mM phosphate buffer, 150 mM NaCl, pH 7.2). Blood cells were separated over histopaque (Sigma-aldrich) by centrifugation for 30 min at 1200 rpm. The PBMCs were collected and washed twice with NaCl/Pi (35 mM phosphate buffer, 150 mM NaCl, pH 7.2). The cells were then re-suspended in complete RPMI 1640 medium (Himedia) supplemented with 10% FBS (Sigma) and quantified by trypan blue exclusion on microscope. PBMCs (1×10^6 cells/mL) in complete media were seeded into a 24-well plate and left in the incubator for 2 h at 37° C. in 5% CO2. The cells were then treated with 1c, 1d and VAN at desired concentrations (20 μg/mL). 2% Triton X-100 was used as a […] control. After 24 h of incubation, the content of each well was transferred to sterile 1.5 mL eppendorf tube and cells were pelleted at 2000 rpm for 10 min. The supernatant was assessed for the release of LDH by using the TOX7 kit (Sigma). […]
Background: LDH leaks from cells whose membrane has failed.

The next data set concerns S. aureus (ATCC 33591). As to the kind of experiment: Resistance development study, serial passage at sub MIC. It counts as cell-based, Staphylococcus aureus. The note with it: 17 serial passages at sub MIC. How it is done:
FIG. 5: Illustration of resistance development study in S. aureus (ATCC 33591) after 17 serial passages with sub MIC of 1c/1d or antibiotic treatment. The fold change in MIC is the ratio of the MIC after 17 passages relative to that MIC observed before first passage.
To determine potential of active peptidomimetics against resistance development, in vitro serial passage method at sub inhibitory concentration was done. Briefly, bacterial suspension (100 μL) from duplicate wells at the concentration of sub-MIC was used to inoculate fresh culture. The culture was grown to obtain approximately 10^5 CFU/mL for the next experiment. These bacterial suspensions were then incubated with desired concentration of antibacterial agents for 18 h to determine new MIC. The same sub culturing protocol was used for next 16 passages and MIC was determined using OD630 nm as described previously in the text [Chem. Biol., 20:1286-1295, 2013.]

The test system of data set [7] is MRSA (ATCC 33591) biofilm. In words: Confocal laser scanning microscopy of biofilm, thickness by z-stacking. The note with it: for thickness of mature biofilm after treatment: 10×MICb, untreated 23.6±2.5 μm; for thickness of mature biofilm after treatment / confocal observation of mature biofilm: 24 h preformed biofilm; for confocal observation of mature biofilm: 20×MICb; for average thickness of biofilm, biofilm formation: MICb; for average thickness of biofilm, biofilm formation / thickness of biofilm, biofilm formation: control 14.3±1.4 μm; for thickness of biofilm, biofilm formation: sub-MICb. Type of data set: cell-based, Staphylococcus aureus. The text has this:
For visualization of biofilm and validation of AB and CV assay we performed confocal microscopy. For this biofilm formation was induced on glass cover slips in a 6-well plate. The biofilm on cover slips were washed twice with sterile NaCl/Pi buffer and stained with a Live/Dead kit reagent (Invitrogen, Molecular Probes, Eugene, Oreg., USA) following the manufacturer's instructions. This stain contains DNA binding dyes SYTO 9 (green fluorescent) and propidium iodide (PI; red fluorescent). When used alone, SYTO 9 stains all bacteria in a population, those with intact as well as damaged membranes. In contrast, PI penetrates only bacteria with damaged membranes, causing a reduction in the SYTO 9 stain (green fluorescence). The biofilms were examined with an Olympus flow view FV1000 (confocal laser scanning microscope, CLSM). The experiment was repeated three times on three different days and representative data is presented here.
We next measured the thickness of biofilm using z-stacking in confocal microscopy. […] At MICb, 1c and 1d prevented formation of biofilm in which very few cells were adhered to substratum with observed average thickness of 3.9±1.1 μm and 3.5±0.6 μm, respectively. Furthermore, at sub-MICb concentration the observed thicknesses were 5.2±0.3 μm and 5.8±0.4 μm (FIG. 7A.b and FIG. 7A.d).

≈ marks a conversion by molar mass, not a printed value. Where “and” joins values, the source holds several entries; their conditions need not be identical. Equal values may be shown once.

For the molecule `CCCCCCCCCC(=O)NC(Cc1c[nH]c2ccccc12)C(=O)NC(Cc1c[nH]c2ccccc12)C(=O)NCCCNCCCCNCCCN` (stereo not shown) [1d], in data set [1], the “MIC A. baumannii (ATCC 19606)” value is 0.1136 µg/mL (≈ 0.156 µM). Further, the “MIC E. facaelis (ATCC 7080)” value in data set [2] was found to be 0.0035 µg/mL (≈ 0.0048 µM). In addition, in data set [3], the “MIC S. epidermidis (ATCC 12228)” value is 1.7 µg/mL (≈ 2.33 µM). The “MIC MRSE (ATCC 51625)” value in data set [4] came to 0.0017 µg/mL (≈ 0.00233 µM). Moreover, the “MIC E. coli. (ATCC 11775)” value in data set [5] came to 14.2. Moreover, in data set [6], the “% LDH release against peripheral blood mononuclear cells” value is 17.56±10.15% and 17.5%. For the same molecule, the “increase in MIC after 17 passages” value in the data set on S. aureus (ATCC 33591) turned out to be 2 fold. In addition, in data set [7], the “thickness of mature biofilm after treatment” value is recorded as 7.0±1.0 μm; the “confocal observation of mature biofilm” value is given as “most of the cells lost their integrity”; the “average thickness of biofilm, biofilm formation” value came to 3.5±0.6 μm; the “thickness of biofilm, biofilm formation” value worked out at 5.8±0.4 μm.

Consider `NCCCNCCCCNCCCNC(=O)C(Cc1c[nH]c2ccccc12)NC(=O)C(Cc1c[nH]c2ccccc12)NC(=O)Cc1ccc(C(F)(F)F)cc1` (stereo not shown) [1c], for which the “MIC A. baumannii (ATCC 19606)” value in data set [1] was found to be 0.0284 µg/mL (≈ 0.0373 µM). Further, the “MIC E. facaelis (ATCC 7080)” value in data set [2] turned out to be 0.0284 µg/mL (≈ 0.0373 µM). The “MIC S. epidermidis (ATCC 12228)” value in data set [3] was 1.7 µg/mL (≈ 2.23 µM). Also, in data set [4], the “MIC MRSE (ATCC 51625)” value stood at 0.0035 µg/mL (≈ 0.0046 µM). Moreover, the “MIC E. coli. (ATCC 11775)” value in data set [5] came to 56.8. Also, the “% LDH release against peripheral blood mononuclear cells” value in data set [6] is 5.78±6.58% and 5.78%. Besides, the “increase in MIC after 17 passages” value in the data set on S. aureus (ATCC 33591) came out at 4 fold. Moreover, in data set [7], the “thickness of mature biofilm after treatment” value is 7.1±1.5 μm; the “confocal observation of mature biofilm” value is on record as “most of the cells lost their integrity”; the “average thickness of biofilm, biofilm formation” value came out at 3.9±1.1 μm; the “thickness of biofilm, biofilm formation” value was 5.2±0.3 μm.
